Values of other authors as cited in patent publication US10695309B2 (Western New England University, priority 2017, dated 2020).

Settings: for half-life: in vivo

half-life	bioavailability (reported)	SMILES
less than 2 days	69-99%	N[C@@H](Cc1cc(I)c(Oc2ccc(O)c(I)c2)c(I)c1)C(=O)O [Formulation T3, Liothyronine]
140 to 170 h	–	N[C@@H](Cc1cc(I)c(Oc2cc(I)c(O)c(I)c2)c(I)c1)C(=O)O [Formulation T4, levothyroxine]
